The values that follow come from US20060122432A1, “Aryl piperidine derivatives and use thereof to reduce elevated levels of ldl-cholesterol” (priority 2002, published 2006).

Each structure is given as a SMILES string. Where a name gives a salt, the structure may show the parent alone.

The test system of series [1] is LDL-r promoter. Description: LDL-r promoter luciferase reporter assay in HepG2 cells. In kind it is cell-based. As to conditions: Homo sapiens; HepG2 cells stably transfected with LDL-r promoter-luciferase construct, 24 hours incubation, 2% lipoprotein-deficient serum; read-out: EC50 induction of luciferase activity. On the procedure: HepG2 cells, stably transfected with a construct comprising the LDL-r promoter and the luciferase reporter gene, were seeded at 50.000 cells/well in 96 well plates. After 1 day, cells were incubated with compounds for 24 hours in RPMI medium containing 2% of lipoprotein-deficient serum. Compounds were tested from […]. Cell lysates were prepared and the luciferase activity was measured by the luciferase assay system (Promega). Induction of luciferase activity was calculated taking untreated cells as control. The ED50 of each compounds was determined compared to the ED50 of an internal standard.

In the case of `Cc1nc(-c2ccc(C#N)cc2)sc1C(=O)NCCCCN1CCC(c2ccc3c(c2OCCO)CCCC3)CC1` (as salt: hydrochloride) [Example 7, 2-(4-Cyano-phenyl)-4-methyl-thiazole-5-carboxylic acid (4-{4-[1-(2-hydroxy-ethoxy)-5,6,7,8-tetrahydro-naphthalen-2-yl]-piperidin-1-yl}-butyl)-amide, hydrochloride], the melting point was found to be 188 °C.

`O=C(NCCCCN1CCC(c2ccc3c(c2OCCO)CCCC3)CC1)c1sc(-c2ccc(C(F)(F)F)cc2)nc1CO` [Example 3, 4-Hydroxymethyl-2-(4-trifluoromethyl-phenyl)-thiazole-5-carboxylic acid (4-{4-[1-(2-hydroxy-ethoxy)-5,6,7,8-tetrahydro-naphthalen-2-yl]-piperidin-1-yl}-butyl)-amide] registered a melting point of 157 to 159 °C.

Regarding `Cc1nc(-c2ccc(Cl)cc2Cl)sc1C(=O)NCCCCN1CCC(c2ccc3c(c2OCCO)CCCC3)CC1` [Example 8, 2-(2,4-dichloro-phenyl)-4-methyl-thiazole-5-carboxylic acid (4-{4-[1-(2-hydroxy-ethoxy)-5,6,7,8-tetrahydro-naphthalen-2-yl]-piperidin-1-yl}-butyl)-amide], the EC50 in series [1] was 13 nM.

Take `CS(=O)(=O)Nc1ccc(-c2ccc(C(=O)NCCCCN3CCC(c4ccc5c(c4OCCO)CCCC5)CC3)cc2)cc1` [Example 12, 4′-Methanesulfonylamino-biphenyl-4-carboxylic acid (4-{4-[1-(2-hydroxy-ethoxy)-5,6,7,8-tetrahydro-naphthalen-2-yl]-piperidin-1-yl}-butyl)-amide]: the melting point stood at 216 °C. Besides, the concentration for a half-maximal effect (EC50) in series [1] stood at 5 nM.
